Where two headings read alike, the source gives them in different places.
System: patient experiencing an allergic emergency (symptoms of anaphylaxis)
Details: approximately 5 minutes apart
Method: (§1) A patient experiencing an allergic emergency initiates treatment at the onset of shortness of breath by self administering 40 mg of epinephrine free base in a buccal dosage form.
as §1
A patient experiencing an allergic emergency initiates treatment at the onset of shortness of breath by self administering 40 mg of epinephrine free base in a lingual dosage form.

Measured: patient's symptoms of anaphylaxis

CNC[C@H](O)c1ccc(O)c(O)c1 [epinephrine]
relieved: Example 1: 40 mg buccal, second 40 mg buccal, then first auto-injected 0.3 mg dose, outcome within about five minutes after the first injectable dose | Example 2: 40 mg buccal, 60 mg buccal, then two auto-injected 0.3 mg doses, outcome within about five minutes after the second injectable dose | Example 3: 40 mg lingual, 60 mg lingual, then two auto-injected 0.3 mg doses, outcome within about five minutes after the second injectable dose
